For assay [1], the target named is human serotonin transporter (Homo sapiens, UniProt P31645). The assay is described as follows: Human serotonin (hSERT) receptor binding, [125I]-RTI-55. As to conditions: membranes of HEK-293 cells transfected with human serotonin transporter cDNA, IC50 converted by Cheng-Prusoff. The method, then: Cell pastes of HEK-293 cells transfected with a human serotonin transporter cDNA were prepared. The cell pastes were resuspended in 400 to 700 ml of Krebs-HEPES assay buffer (25 mM HEPES, 122 mM NaCl, 3 mM KCl, 1.2 mM MgSO4, 1.3 mM CaCl2, and 11 mM glucose, pH 7.4) with a Polytron homogenizer at Setting 7 for 30 seconds. Aliquots of membranes (˜2.5 mg/mL protein) were stored in liquid nitrogen until used.
human serotonin transporter, sequence (P31645 whole entry): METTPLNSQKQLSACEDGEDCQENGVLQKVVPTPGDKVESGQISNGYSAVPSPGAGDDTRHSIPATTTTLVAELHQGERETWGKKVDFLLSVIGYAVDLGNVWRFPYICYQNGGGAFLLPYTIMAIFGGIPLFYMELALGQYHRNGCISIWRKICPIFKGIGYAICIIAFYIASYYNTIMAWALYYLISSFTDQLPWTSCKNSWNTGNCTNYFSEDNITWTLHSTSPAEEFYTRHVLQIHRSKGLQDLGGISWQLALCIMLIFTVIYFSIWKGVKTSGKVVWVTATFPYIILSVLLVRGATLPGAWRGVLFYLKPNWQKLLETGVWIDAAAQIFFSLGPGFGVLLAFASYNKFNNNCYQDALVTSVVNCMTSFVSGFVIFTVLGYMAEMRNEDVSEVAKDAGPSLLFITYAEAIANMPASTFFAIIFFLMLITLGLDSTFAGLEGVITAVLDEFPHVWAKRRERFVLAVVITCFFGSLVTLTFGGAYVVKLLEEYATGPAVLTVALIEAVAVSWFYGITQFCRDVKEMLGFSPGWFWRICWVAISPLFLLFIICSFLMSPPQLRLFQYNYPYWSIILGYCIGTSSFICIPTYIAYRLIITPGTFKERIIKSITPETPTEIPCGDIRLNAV
Assays were set up in FlashPlates pre-coated with 0.1% polyethyleneimine (PEI) in a total volume of 250 μL containing: test compound (concentration 10^−5M to 10^−12M), cell membranes, and […] [^125I]-RTI-55 (Perkin Elmer, NEX-272; specific activity 2200 Ci/mmol). The reaction was incubated and gently agitated for 90 minutes at room temperature, and terminated by removal of assay volume. Plates were covered, and bound [^125I]-RTI-55 was determined using a Wallac Trilux Beta Plate Counter. Test compounds were run in duplicate, and specific binding was defined as the difference between binding in the presence and absence of 10 μM citalopram.
Excel and GraphPad Prism software were used for data calculation and analysis. IC50 values were converted to Ki values using the Cheng-Prusoff equation.

Assay [2] deals with human norepinephrine transporter (Homo sapiens, UniProt P23975). The assay is described as follows: Human norepinephrine (hNET) receptor binding, [125I]-RTI-55. Particulars: membranes of HEK-293 cells transfected with human norepinephrine transporter cDNA; 50 pM [125I]-RTI-55; IC50 converted by Cheng-Prusoff. The method, then:
Cell pastes of human embryonic kidney 293 (HEK-293) cells transfected with a human norepinephrine transporter cDNA were prepared. The cell pastes were resuspended in 400 to 700 mL of Krebs-N-2-hydroxyethylpiperazine-N′-2-ethanesulfonic acid (HEPES) assay buffer (25 mM HEPES, 122 mM NaCl, 3 mM KCl, 1.2 mM MgSO4, 1.3 mM CaCl2, and 11 mM glucose, pH 7.4) with a Polytron homogenizer at setting 7 for 30 seconds. Aliquots of membranes (5 mg/mL protein) were stored in liquid nitrogen until used.
The binding assay was set up in Beckman deep-well polypropylene plates with a total volume of 250 μL containing: test compound (concentration of 10^−5M to 10^−12M), cell membranes, and 50 pM [^125I]-RTI-55 ([^125I]-3 beta-(4-iodophenyl)tropan-2 beta-carboxylic acid methyl ester) (Perkin Elmer, NEX-272; specific activity 2200 Ci/mmol). The reaction was incubated by gentle agitation for 90 minutes at room temperature and was terminated by filtration through Whatman GF/C filter plates using a Brandel 96-well plate harvester. Scintillation fluid (100 μL) was added to each well, and bound [^125I]-RTI-55 was determined using a Wallac Trilux Beta Plate Counter. Test compounds were run in duplicate, and specific binding was defined as the difference between binding in the presence and absence of 10 μM desipramine.
Excel and GraphPad Prism software were used for data calculation and analysis. IC50 values were converted to Ki values using the Cheng-Prusoff equation. The Ki values (nM) for the hNET are reported below in Table 13.

Molecules are shown by their SMILES. pKi: −log10 of the molar value. Structures can show the parent of a compound that is named as a salt.

human norepinephrine transporter, sequence (P23975 whole entry): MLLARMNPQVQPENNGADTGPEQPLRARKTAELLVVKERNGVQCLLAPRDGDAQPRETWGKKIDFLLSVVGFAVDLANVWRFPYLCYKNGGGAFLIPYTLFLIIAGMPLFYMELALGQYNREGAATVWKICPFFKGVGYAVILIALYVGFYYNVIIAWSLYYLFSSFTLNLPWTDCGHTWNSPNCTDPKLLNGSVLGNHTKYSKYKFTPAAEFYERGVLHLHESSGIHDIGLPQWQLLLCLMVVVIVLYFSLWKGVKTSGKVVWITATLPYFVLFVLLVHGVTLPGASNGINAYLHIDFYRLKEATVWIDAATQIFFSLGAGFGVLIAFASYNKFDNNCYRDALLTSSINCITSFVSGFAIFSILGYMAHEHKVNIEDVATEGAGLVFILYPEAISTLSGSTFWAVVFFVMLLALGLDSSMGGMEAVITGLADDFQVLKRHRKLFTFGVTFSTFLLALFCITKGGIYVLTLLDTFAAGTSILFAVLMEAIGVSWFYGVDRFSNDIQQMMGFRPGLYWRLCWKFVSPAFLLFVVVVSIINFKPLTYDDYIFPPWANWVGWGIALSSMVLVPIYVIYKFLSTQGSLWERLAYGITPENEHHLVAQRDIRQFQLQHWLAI

Usually pKi stands for −log10 of the Ki, conventionally taken in molar units. Lower therefore signals a high Ki. On to `COc1ccccc1Oc1nc(C)ccc1OC[C@H]1CCCNC1` [Example 3, (S)-2-(2-methoxy-phenoxy)-6-methyl-3-(piperidin-3-ylmethoxy)-pyridine fumaric acid], for which the values for the pKi in assay [1] and in assay [2] were 5.92 and 8.66, respectively.

Turning to `Fc1ccc(Oc2c(F)cccc2OC[C@H]2CCCNC2)c(Cl)c1` [Example 38, (S)-3-[2-(2-chloro-4-fluoro-phenoxy)-3-fluoro-phenoxymethyl]-piperidine fumaric acid], the pKi was 5.72 in assay [1] and 8.44 in assay [2].

As to `Fc1ccc(Oc2cc(F)ccc2OC[C@H]2CCCNC2)c(Cl)c1` [Example 39, (S)-3-[2-(2-chloro-4-fluoro-phenoxy)-4-fluoro-phenoxymethyl]-piperidine fumaric acid], the negative logarithm of the Ki (pKi) in assay [1] was 6.96; in assay [2], 6.10.

`CCOc1ncccc1OC[C@H]1CCCNC1` [Example 79, (S)-2-ethoxy-3-(piperidin-3-ylmethoxy)-pyridine fumaric acid]: the pKi in assay [1] is below 5.00; in assay [2], 6.97.

Take `COc1cccc(F)c1O[C@@H](c1ccccn1)[C@H]1CCCNC1` [Example 115, 2-[{(R)-2-fluoro-6-methoxy-phenoxy}-(S)-piperidin-3-yl-methyl]-pyridine fumaric acid]: the pKi in assay [1] was 5.30; in assay [2], 8.40.

Take `Cc1ccc(OC[C@H]2CCCNC2)c(Oc2ccc(Cl)c(Cl)c2)n1` [Example 17, (S)-2-(3,4-dichloro-phenoxy)-6-methyl-3-(piperidin-3-ylmethoxy)-pyridine fumaric acid]: the pKi in assay [1] is 7.20; in assay [2] it was 7.92.

`Cc1ccc(OC[C@H]2CCCNC2)c(Oc2cc(C)c(Cl)cc2C(C)C)n1` [Example 16, (S)-2-[4-chloro-5-methyl-2-(1-methyl-ethyl)-phenoxy]-6-methyl-3-(piperidin-3-ylmethoxy)-pyridine fumaric acid]: the pKi is 5.77 in assay [1] and 5.59 in assay [2].

Take `Fc1ccc(Oc2ncccc2OC(c2ccccc2)C2CCCNC2)cc1` (single isomer, unassigned; stereoisomer a) [Example 88, 2-(4-fluoro-phenoxy)-3-[((R or S)-phenyl)-((S)-piperidin-3-yl)-methoxy]-pyridine fumaric acid, stereoisomer A]: the pKi in assay [1] is 6.82; in assay [2], 8.40.

Regarding `Cc1ccc(OC[C@H]2CCCNC2)c(Oc2cccc3c2CCCC3)n1` [Example 19, (S)-6-methyl-3-(piperidin-3-ylmethoxy)-2-(5,6,7,8-tetrahydronaphthalen-1-yloxy)-pyridine fumaric acid], the pKi in assay [1] was 5.72; in assay [2] it was 7.07.

For the molecule `C[C@H](Oc1ccccc1OCc1ccccc1)[C@H]1CCCNC1` [Example 108, (S)-3-[(S)-1-(2-benzyloxy-phenoxy)-ethyl]-piperidine oxalic acid], the pKi in assay [1] is 6.14; in assay [2] it was 8.52.

In the case of `Cc1ccc(OC[C@H]2CCCNC2)c(Oc2ccccc2OC(C)C)n1` [Example 10, (S)-2-[2-(1-methyl-ethoxy)-phenoxy]-6-methyl-3-(piperidin-3-ylmethoxy)-pyridine fumaric acid], the results for the pKi in assay [1] and in assay [2] were 5.59 and 8.00, respectively.

With `COCCOc1ccccc1OC(C)(C)[C@H]1CCCNC1` [Example 118, (S)-3-{1-[2-(2-methoxy-ethoxy)-phenoxy]-1-methyl-ethyl}-piperidine fumaric acid], the pKi in assay [1] was 5.60; in assay [2], 7.42.

For `Cc1ccc(OC[C@H]2CCCNC2)c(Oc2ccc(Cl)cc2Cl)n1` [Example 22, (S)-2-(2,4-dichloro-phenoxy)-6-methyl-3-(piperidin-3-ylmethoxy)-pyridine fumaric acid], the pKi in assay [1] was 7.10; in assay [2] it was 8.33.

Regarding `CC[C@H](Oc1cccnc1Oc1ccccc1)[C@H]1CCCNC1` [Example 84, (S,S)-2-phenoxy-3-(1-piperidin-3-yl-propoxy)-pyridine fumaric acid], the pKi was 5.69 in assay [1] and 8.52 in assay [2].

With `N#Cc1ccc(Oc2ncccc2OC[C@H]2CCCNC2)cc1C#N` [Example 58, (S)-4-[3-(piperidin-3-ylmethoxy)-pyridin-2-yloxy]-phthalonitrile fumaric acid], the pKi is 5.40 in assay [1] and 5.92 in assay [2].

Take `CCOc1cccc(F)c1OC[C@H]1CCCNC1` [Example 105, (S)-3-(2-ethoxy-6-fluoro-phenoxymethyl)-piperidine fumaric acid]: the values for the pKi in assay [1] and in assay [2] were 5.55 and 7.49, respectively.

In assay [2], `CC(C)COc1cccc(F)c1OC[C@H]1CCCNC1` [Example 104, (S)-3-(2-fluoro-6-isobutoxy-phenoxymethyl)-piperidine fumaric acid] had a negative-log Ki (pKi) of 7.59.

Regarding `Cc1ccc(OC[C@H]2CCCNC2)c(Oc2ccc(F)cc2C)n1` [Example 1, (S)-2-(4-fluoro-2-methyl-phenoxy)-6-methyl-3-(piperidin-3-ylmethoxy)-pyridine fumaric acid], the pKi in assay [1] was 6.24; in assay [2], 7.55.

With `Fc1ccc(Oc2ncccc2OC[C@H]2CCCNC2)cc1` [Example 53, (S)-2-(4-fluoro-phenoxy)-3-(piperidin-3-ylmethoxy)-pyridine fumaric acid], the pKi in assay [1] was 5.15; in assay [2], 8.52.

As for `CCOc1ncccc1O[C@@H](CC)[C@H]1CCCNC1` [Example 86, (S,S)-2-ethoxy-3-(1-piperidin-3-yl-propoxy)-pyridine fumaric acid], the pKi in assay [1] is 6.15; in assay [2] it was 7.89.

For `CCOc1ncccc1OC(c1ccccc1)C1CCCNC1` (single isomer, unassigned; stereoisomer a) [Example 90, 2-ethoxy-3-[((R or S)-phenyl)-((S)-piperidin-3-yl)-methoxy]-pyridine fumaric acid, stereoisomer A], the pKi in assay [1] is 7.15; in assay [2], 8.70.

With `Cc1ccc(OC[C@H]2CCCNC2)c(Oc2c(Cl)cc(F)cc2Cl)n1` [Example 48, (S)-2-(2,6-dichloro-4-fluoro-phenoxy)-6-methyl-3-(piperidin-3-ylmethoxy)-pyridine hydrochloride], the values for the pKi in assay [1] and in assay [2] were below 5.04 and 7.21, respectively.

Regarding `Cc1ccc(OC[C@H]2CCCNC2)c(Oc2ccccc2C)n1` [Example 5, (S)-2-(2-methyl-phenoxy)-6-methyl-3-(piperidin-3-ylmethoxy)-pyridine fumaric acid], the figures for the pKi in assay [1] and in assay [2] were 5.55 and 8.08, respectively.

Take `COc1ccc(Oc2nc(C)ccc2OC[C@H]2CCCNC2)c(Cl)c1` [Example 26, (S)-2-(2-chloro-4-methoxy-phenoxy)-6-methyl-3-(piperidin-3-ylmethoxy)-pyridine fumaric acid]: the pKi in assay [1] was 6.07; in assay [2] it was 7.74.

`COc1cccc(F)c1Oc1nc(C)ccc1OC[C@H]1CCCNC1` [Example 21, (S)-2-(2-fluoro-6-methoxy-phenoxy)-6-methyl-3-(piperidin-3-ylmethoxy)-pyridine fumaric acid]: the figures for the pKi in assay [1] and in assay [2] were 7.14 and 8.31, respectively.

Regarding `COc1ccc(Oc2ncccc2OC[C@H]2CCCNC2)cc1` [Example 51, (S)-2-(4-methoxy-phenoxy)-3-(piperidin-3-ylmethoxy)-pyridine fumaric acid], the pKi in assay [1] is 5.14; in assay [2] it was 7.57.

With `CCOc1ncccc1OC(c1ccccc1)C1CCCNC1` (single isomer, unassigned; stereoisomer b) [Example 91, 2-ethoxy-3-[((R or S)-phenyl)-((S)-piperidin-3-yl)-methoxy]-pyridine fumaric acid, stereoisomer B], the pKi in assay [1] is 6.37; in assay [2], 7.00.

Consider `Cc1ccc(OC[C@H]2CCCNC2)c(Oc2ccc(F)cc2Cl)n1` [Example 24, (S)-2-(2-chloro-4-fluoro-phenoxy)-6-methyl-3-(piperidin-3-ylmethoxy)-pyridine fumaric acid], for which the pKi in assay [1] is 6.80; in assay [2], 8.57.

The values above are taken from US20100120858A1, “Piperidine Derivatives” (Pfizer Inc., priority 2006, published 2010).
